#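 Protocol summary: plate cells (96-well), add compound at 5 concentrations, incubate 48 h, interpolate endpoints linearly. GI50: concentration for 50% inhibition of growth. TGI: total growth inhibition.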
# Assays:
# Experiment in all cases: NCI anticancer screen, dose series, 48 h
# OVCAR-3 ovarian = test system: OVCAR-3 ovarian
# T-47D breast = test system: T-47D breast
# 786-0 renal = test system: 786-0 renal
# BT-549 breast = test system: BT-549 breast
# HOP-92 NSCLC = test system: HOP-92 NSCLC
# LOX IMVI melanoma = test system: LOX IMVI melanoma
# RXF 393 renal = test system: RXF 393 renal
# SN12C renal = test system: SN12C renal
# HOP-62 NSCLC = test system: HOP-62 NSCLC
# SR leukemia = test system: SR leukemia
# HCT-116 colon = test system: HCT-116 colon
# COLO 205 colon = test system: COLO 205 colon
# UO-31 renal = test system: UO-31 renal
# OVCAR-4 ovarian = test system: OVCAR-4 ovarian
# TK-10 renal = test system: TK-10 renal
# A498 renal = test system: A498 renal
# M14 melanoma = test system: M14 melanoma
# HL-60(TB) leukemia = test system: HL-60(TB) leukemia
# SNB-19 CNS = test system: SNB-19 CNS
# RPMI-8226 leukemia = test system: RPMI-8226 leukemia
# SK-MEL-28 melanoma = test system: SK-MEL-28 melanoma
# U251 CNS = test system: U251 CNS
# OVCAR-5 ovarian = test system: OVCAR-5 ovarian
# PC-3 prostate = test system: PC-3 prostate
# A549 NSCLC = test system: A549 NSCLC
# NCI/ADR-RES ovarian = test system: NCI/ADR-RES ovarian
# MCF7 breast = test system: MCF7 breast
# HT29 colon = test system: HT29 colon
# UACC-257 melanoma = test system: UACC-257 melanoma
# KM12 colon = test system: KM12 colon
# HS 578T breast = test system: HS 578T breast
# NCI-H522 lung = test system: NCI-H522 lung
# NCI-H460 lung = test system: NCI-H460 lung
# SF-268 CNS = test system: SF-268 CNS
# OVCAR-8 ovarian = test system: OVCAR-8 ovarian
# MDA-MB-231 breast = test system: MDA-MB-231 breast
# IGROV1 ovarian = test system: IGROV1 ovarian
# MALME-3M melanoma = test system: MALME-3M melanoma
# SK-OV-3 ovarian = test system: SK-OV-3 ovarian
# MDA-MB-435 = test system: MDA-MB-435
# HCT-15 colon = test system: HCT-15 colon
# UACC-62 melanoma = test system: UACC-62 melanoma
# ACHN renal = test system: ACHN renal
# K-562 leukemia = test system: K-562 leukemia
# HCC-2998 colon = test system: HCC-2998 colon
# SK-MEL-5 melanoma = test system: SK-MEL-5 melanoma
# SK-MEL-2 melanoma = test system: SK-MEL-2 melanoma
# NCI-H23 lung = test system: NCI-H23 lung
# SW-620 colon = test system: SW-620 colon
# CAKI-1 renal = test system: CAKI-1 renal
# MOLT-4 leukemia = test system: MOLT-4 leukemia
# SF-539 CNS = test system: SF-539 CNS
compound,measurement,setting,value
COc1cc(C(=O)/C=C/c2cc(-c3cc(OC)c(OC)c(OC)c3)n[nH]2)cc(OC)c1OC,GI50,OVCAR-3 ovarian,1750 nM
same,TGI,OVCAR-3 ovarian,3180 nM
same,GI50,T-47D breast,1130 nM
same,TGI,T-47D breast,2570 nM
same,GI50,786-0 renal,1560 nM
same,TGI,786-0 renal,3250 nM
same,GI50,BT-549 breast,1570 nM
same,TGI,BT-549 breast,2960 nM
same,GI50,HOP-92 NSCLC,186 nM
same,TGI,HOP-92 NSCLC,1020 nM
same,GI50,LOX IMVI melanoma,1520 nM
same,TGI,LOX IMVI melanoma,2910 nM
same,GI50,RXF 393 renal,1260 nM
same,TGI,RXF 393 renal,2670 nM
same,GI50,SN12C renal,1470 nM
same,TGI,SN12C renal,2970 nM
same,GI50,HOP-62 NSCLC,1460 nM
same,TGI,HOP-62 NSCLC,2890 nM
same,GI50,SR leukemia,398 nM
same,TGI,SR leukemia,> 100000 nM
same,GI50,HCT-116 colon,1310 nM
same,TGI,HCT-116 colon,2590 nM
same,GI50,COLO 205 colon,1750 nM
same,TGI,COLO 205 colon,3130 nM
same,GI50,UO-31 renal,1190 nM
same,TGI,UO-31 renal,2480 nM
same,GI50,OVCAR-4 ovarian,1450 nM
same,TGI,OVCAR-4 ovarian,2760 nM
same,GI50,TK-10 renal,1460 nM
same,TGI,TK-10 renal,2800 nM
same,GI50,A498 renal,1610 nM
same,TGI,A498 renal,3590 nM
same,GI50,M14 melanoma,1790 nM
same,TGI,M14 melanoma,3320 nM
same,GI50,HL-60(TB) leukemia,1930 nM
same,TGI,HL-60(TB) leukemia,5520 nM
same,GI50,SNB-19 CNS,1660 nM
same,TGI,SNB-19 CNS,3690 nM
same,GI50,RPMI-8226 leukemia,318 nM
same,TGI,RPMI-8226 leukemia,2060 nM
same,GI50,SK-MEL-28 melanoma,1820 nM
same,TGI,SK-MEL-28 melanoma,3330 nM
same,GI50,U251 CNS,1540 nM
same,TGI,U251 CNS,2960 nM
same,GI50,OVCAR-5 ovarian,1640 nM
same,TGI,OVCAR-5 ovarian,3120 nM
same,GI50,PC-3 prostate,1470 nM
same,TGI,PC-3 prostate,3290 nM
same,GI50,A549 NSCLC,2720 nM
same,TGI,A549 NSCLC,12100 nM
same,GI50,NCI/ADR-RES ovarian,3470 nM
same,TGI,NCI/ADR-RES ovarian,21400 nM
same,GI50,MCF7 breast,646 nM
same,TGI,MCF7 breast,2070 nM
same,GI50,HT29 colon,1790 nM
same,TGI,HT29 colon,3370 nM
same,GI50,UACC-257 melanoma,1570 nM
same,TGI,UACC-257 melanoma,2990 nM
same,GI50,KM12 colon,1490 nM
same,TGI,KM12 colon,2930 nM
same,GI50,HS 578T breast,2680 nM
same,TGI,HS 578T breast,53900 nM
same,GI50,NCI-H522 lung,521 nM
same,TGI,NCI-H522 lung,1700 nM
same,GI50,NCI-H460 lung,1890 nM
same,TGI,NCI-H460 lung,4330 nM
same,GI50,SF-268 CNS,1940 nM
same,TGI,SF-268 CNS,4580 nM
same,GI50,OVCAR-8 ovarian,1580 nM
same,TGI,OVCAR-8 ovarian,3280 nM
same,GI50,MDA-MB-231 breast,1520 nM
same,TGI,MDA-MB-231 breast,3800 nM
same,GI50,IGROV1 ovarian,3140 nM
same,TGI,IGROV1 ovarian,10200 nM
same,GI50,MALME-3M melanoma,1860 nM
same,TGI,MALME-3M melanoma,4090 nM
same,GI50,SK-OV-3 ovarian,3200 nM
same,TGI,SK-OV-3 ovarian,11100 nM
same,GI50,MDA-MB-435,1490 nM
same,TGI,MDA-MB-435,2950 nM
same,GI50,HCT-15 colon,1500 nM
same,TGI,HCT-15 colon,3290 nM
same,GI50,UACC-62 melanoma,1780 nM
same,TGI,UACC-62 melanoma,3680 nM
same,GI50,ACHN renal,1620 nM
same,TGI,ACHN renal,3010 nM
same,GI50,K-562 leukemia,2960 nM
same,TGI,K-562 leukemia,> 100000 nM
same,GI50,HCC-2998 colon,1830 nM
same,TGI,HCC-2998 colon,3390 nM
same,GI50,SK-MEL-5 melanoma,1570 nM
same,TGI,SK-MEL-5 melanoma,2940 nM
same,GI50,SK-MEL-2 melanoma,1960 nM
same,TGI,SK-MEL-2 melanoma,4040 nM
same,GI50,NCI-H23 lung,3040 nM
same,TGI,NCI-H23 lung,9900 nM
same,GI50,SW-620 colon,1590 nM
same,TGI,SW-620 colon,3080 nM
same,GI50,CAKI-1 renal,2580 nM
same,TGI,CAKI-1 renal,10900 nM
same,GI50,MOLT-4 leukemia,2320 nM
same,TGI,MOLT-4 leukemia,8950 nM
same,GI50,SF-539 CNS,1290 nM
same,TGI,SF-539 CNS,2830 nM
